According to ChEMBL document CHEMBL4385648 (Bioorg Med Chem, 2019):

How the values were obtained:
Neuraminidase = Neuraminidase (Influenza A virus, UniProt B4URF0); assay: Inhibition of Influenza A virus (A/Anhui/1/2013 (H7N9) neuraminidase expressed by HEK293 cells incubated for 1 hr using 4-MU-NANA substrate by spectrofluorometric assay; assay type: cell-based
[1] = Inhibition of Influenza A virus (A/Babol/36/2005 (H3N2) neuraminidase expressed by HEK293 cells incubated for 1 hr using 4-MU-NANA substrate by spectrofluorometric assay; assay type: cell-based

SMILES	IC50 (Neuraminidase; hek293)	IC50 [1]	IC50 (Neuraminidase; read-out: IC50) [µM]	IC50 ([1]; read-out: IC50) [µM]
CC(=O)C1=C(O)C(C)(C)C(O)=C(CC2=C(O)C(C)(C)C(O)=C(C(C)=O)C2=O)C1=O	Not Active	Not Active	–	–
CCCC(=O)c1c(O)cc(O)c(CC2=C(O)C(C)(C)C(O)=C(C(C)=O)C2=O)c1O	–	–	1.6	5.6
CCOC(=O)C1=C[C@@H](OC(CC)CC)[C@H](NC(C)=O)[C@@H](N)C1 [OSELTAMIVIR]	–	–	–	0.1
CCCC(=O)c1c(O)c(CC2=C(O)C(C)(C)C(O)=C(C(C)=O)C2=O)c(O)c(Cc2c(O)c(CC3=C(O)C(C)(C)C(O)=C(C(C)=O)C3=O)c(O)c(C(=O)CCC)c2O)c1O	–	–	3.6	36.1
CCCC(=O)c1c(O)c(C=O)c(O)c(Cc2c(O)c(C=O)c(O)c(C(=O)CCC)c2O)c1O	–	–	2.5	9.8
